We go through one compound from patent US7094581B2, “Hyaluronan synthases and methods of making and using same” (The Board of Regents of the University of Oklahoma, priority 1998, dated 2006).

“And” between values parts separate entries of the source, which are not always exact repeats. Identical values can stand only once.

One assay concerns seHAS. Briefly: Effect of sulfhydryl reagents on seHAS activity in E. coli membranes. Format: biochemical, Streptococcus equisimilis. The conditions noted are these: E. coli membranes with seHAS-H6, 4° C. 1 h, 5 mM NEM, 5 mM IAA, 0.5 mM 5,5′-dithiobis-(2-nitrobenzoic acid), 0.05 mM methylmethanethiosulfonate, 10 mM sodium arsenite. As to the method: (§1) SeHAS is the smallest HAS protein (417 amino acids) and contains four Cys residues. […] To explore the possible role of cysteines in the function of HAS, the activities of seHAS and spHAS were assayed in the presence of different sulfhydryl reagents (Table II). […] The inhibition of each HAS by NEM was examined in more detail with respect to time of incubation and NEM concentration (FIG. 2).
(§2) E. coli SURE cells transformed with plasmids containing various seHAS mutants were grown in LB medium with vigorous shaking at 32° C. to A600 ˜0.8 and induced with 1 mM isopropyl-β-thiogalactoside for 3 h. Cells were harvested and membranes were prepared as described previously. The kinetic constants for HAS were determined at 37° C. in 100 μl of 50 mM sodium and potassium phosphate, pH 7.0, with 20 mM MgCl2, 1 mM DTE, 240 μM UDP-GIcUA, 0.7 μM UDP-[^14C]GIcUA and 0.6–1.0 mM UDP-GIcNAc. in 100 μl of 25 mM sodium and potassium phosphate, pH 7, containing 50 mM NaCl, 20 mM MgCl2, 1 mM dithiothreitol, 1 mM UDP-GIcUA, 0.68 μM UDP-GIcUA and 1 mM UDP-GIcNAc. Some assays also contained 0.1 mM EDTA and 20% glycerol (v/v). To initiate the enzyme reaction, ˜0.5–40 μg of membrane protein was added and the mixtures were gently shaken in a MicroMixer X-36 (Tiatec) at 30° C. for 1–2 h. Reactions were terminated by the addition of SDS to a final concentration of 2% (w/v). The incorporation of radioactive [^14C]GIcUA was determined by descending paper chromatography and the Km and Vmax values were determined as described by Tlapak-Simmons et al (1999b). Data were analyzed by the methods of Michaelis-Menton or Hill. Protein content was determined by the method of Bradford using bovine serum albumin as the standard. All Cys-mutant or sulfhydryl-treated seHAS samples were assayed in duplicate or triplicate using two or three independent membrane preparations. […] All enzyme assays were performed under conditions that were linear with respect to time and protein concentration.
(§3) Stock solutions (10–100 mM) of NEM, IAA or other sulfhydryl reagents were made in PBS, pH 7.0. Suspensions of membranes containing seHAS or spHAS were incubated with 0–5 mM of the sulfhydryl reagent at 4° C. and the reactions were stopped by adding DTE to a final concentration of 10 mM. The membranes were then assayed for HAS activity as described above.

The next assay has as its target T1, spHAS (Streptococcus pyogenes serotype M6, UniProt Q5X9A9).
T1 construct: made in house; host or cells: E. coli SURE cells (isolated membranes)
T1 sequence (Q5X9A9 1-419): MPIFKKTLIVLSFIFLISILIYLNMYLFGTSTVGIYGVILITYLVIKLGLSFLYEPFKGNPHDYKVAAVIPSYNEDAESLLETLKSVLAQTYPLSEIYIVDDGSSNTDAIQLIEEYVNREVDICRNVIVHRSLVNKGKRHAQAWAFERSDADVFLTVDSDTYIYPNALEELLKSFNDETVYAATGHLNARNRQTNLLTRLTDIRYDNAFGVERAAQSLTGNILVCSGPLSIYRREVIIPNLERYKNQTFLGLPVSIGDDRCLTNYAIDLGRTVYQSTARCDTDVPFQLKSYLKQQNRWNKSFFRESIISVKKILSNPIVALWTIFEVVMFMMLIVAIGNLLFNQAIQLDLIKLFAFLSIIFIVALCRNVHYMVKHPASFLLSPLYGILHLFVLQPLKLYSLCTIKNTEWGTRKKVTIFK
Description: Effect of sulfhydryl reagents on spHAS activity in E. coli membranes. Format: biochemical. The conditions noted are these: E. coli membranes with spHAS-H6, 4° C. 1 h, 5 mM NEM, 5 mM IAA, 0.5 mM 5,5′-dithiobis-(2-nitrobenzoic acid), 0.05 mM methylmethanethiosulfonate, 10 mM sodium arsenite. As to the method:
as §1, §2, §3

Assay [1] has as its system triple Cys-mutants of seHAS. Briefly: NEM inactivation of triple Cys-mutants of seHAS and protection by substrates. Format: biochemical, Streptococcus equisimilis. The conditions noted are these: 5 mM NEM, 4° C., 10 min. As to the method: FIG. 6. Substrates protect triple Cys-mutants of seHAS from inactivation by NEM. E. coli membranes containing the indicated triple Cys-mutant of seHAS (each with a single remaining Cys residue) were treated at 4° C. for 10 min with no additions (control; 100% values) or with 5 mM NEM alone and in the presence of either UDP, UDP-GIcUA or UDP-GIcNAc. Unreacted Nem was then quenched and HAS activity was determined. Results are not shown for the mutant containing only Cys^367, since NEM inactivation of this mutant is ˜10% and all values were essentially identical.
Although the 4 Cys residues in seHAS (positions 226, 262, 281 and 367) are roughly conserved in all Class I HAS family members, the Cys-null mutants of seHAs and spHAS are active, with minimal changes in their kinetics compared to wild type. It is also shown here that neither HAS contains disulfide bonds. To understand why these four cysteines are, nevertheless, largely conserved within the Class I HASs, NEM sensitivity was examined (i.e., the time- and dose-dependent inhibition) of all possible Cys-to-Ala mutants of seHAS. […] Cys281 appears not to be within a UDP-sugar binding site, since the triple Cys-mutant seHAS (A3C)C281 was not protected from NEM inhibition by UDP, UDP-GIcUA or UDP-GIcNAc (FIG. 6).
Stock solutions (10–100 mM) of NEM, IAA or other sulfhydryl reagents were made in PBS, pH 7.0. […]

Turning to `CCN1C(=O)C=CC1=O` [N-ethylmaleimide], the “Inhibition of HAS Activity (% relative to control), seHAS” value was 70 ± 4.8% in the assay on seHAS; ~70% and 60–70% in the assay with seHAS (listed as NEM). Besides, the “Inhibition of HAS Activity (% relative to control), spHAS” value is on record as 60 ± 3.5% at spHAS and 60–70% at spHAS (listed as NEM). Moreover, the “NEM inactivation of the seHAS mutant containing only Cys^367” value in assay [1] was around 10%.
